Measurements from patent US20050136472A1, “Methods for identification of ligands or modulators of 2871 receptor, a G-protein coupled receptor” (Millennium Pharmaceuticals, Inc., priority 2001, published 2005).

Tests used:
2871 receptor [1] = target: T1, 2871 receptor (Homo sapiens, UniProt Q9BY21); assay: FLIPR calcium mobilization screening of 2871 receptor-transfected cells; type: cell-based; details: HEK293G16 cells stably transfected with 2871 receptor protein; for calcium mobilization response: concentration response; for EC50: calcium mobilization
T1 construct: encodes a full length 2871 receptor protein; myc (on only one of the two constructs made); expressed in transfected cells
Experimental: The 2871 receptor proteins were expressed in either human embryonic kidney 293 (HEK293) cells or CHO cells, both of which were stably transfected with cDNA encoding the promiscuous G-protein Gal6. A pEF6 vector (invitrogene) including a cDNA of 2871 comprising only the open reading frame (ORF) or 5′-myc tagged ORF was constructed. Cells were transfected with individual construct by lipofectamine (GIBCO) and selected in the presence of 20 ug/ml Blasticidine. After 3 weeks of selection, drug resistant cells were subcloned to obtain individual clones by limited dilution. To isolate cell lines stably expressing the 2871 receptor protein, about 48 clones were typically selected and analyzed. The expression level for myc-tagged 2871 on individual clones was evaluated by using anti-myc Ab staining and FACScan analysis. The expression level for un-tagged 2871 was evaluated by mRNA analysis using standard Taqman techniques and comparing with mRNA expression of myc-tagged 2871 clones. HEK293G16 or CHOG16 cells transfected with the vector alone serve as negative controls. The clones with the highest expression of 2871 as well as good morphology and growth were used for the screening experiments.
The functional screening procedure involves the use of transfected mammalian cells (CHO, HEK293, RBL, L1.2 etc.) containing a cDNA encoding the 2871 peptides to express the receptor on the cell surface. The cells were loaded with a calcium dependent dye such as fura 2 that produces a fluorescent signal when bound to calcium.
Cells were bound to a receptor agonist, such as Ap6A. Any change in fluorescent signal was measured over a defined period of time using a Fluorescence Imaging Plate Reader (FLIPR) (See Sullivan E, et al. Measurement of [Ca^2+] using the Fluorometric Imaging Plate Reader (FLIPR). Methods Mol Biol 1999;114:125-133.)
Cells were exposed to putative ligands and/or modulators and evaluated for agonist induced calcium mobilization. Cell lines transfected with vector alone served as negative controls in the same screening procedures for agents initially identified as putative ligands and/or modulators.
(§1) 2871 receptor-transfectants (IIEK293 (60,000 cells/well) or CHO cells (30,000 cells/well)) were seeded into poly-D-lysine-coated 96-well black-wall, clear-bottom microtiter plates 24 hours prior to assay. Cells were loaded for 1 hour with 2 μM Fluo-3-AM fluorescent indicator dye (Molecular Probes) in assay buffer (Hank's balanced salt solution, 10 mM HEPES, 0.1% BSA, 2.5 mM probenecid), washed three times with assay buffer, and then applied to FLIPR for analysis.
Bio-active lipids were screened at final concentration of 200 nM and 1 μM. Nucleotides were screened at final concentration of 1 μM and 2 μM. The ratio of net change (maximum subtracting minimum) in fluorescence over baseline was used to determine agonist response. Positive responses were confirmed by checking original raw responsive curve.
Concentration response curve data were fitted by Graphpad Prism 2.1 (Graphpad software, Inc., San Diego).

2871 receptor [2] = target: T1, 2871 receptor; assay: Desensitization of calcium mobilization response by sequential adenosine nucleotide treatment (FLIPR); type: cell-based; details: for desensitization of calcium mobilization response to subsequent adenosine nucleotide treatment: additional treatment five to six minutes after initial dose
Experimental: as §1
Furthermore, calcium mobilization response was selectively desensitized treatment with adenosine nucleotide was followed by subsequent treatment with additional adenosine nucleotide. Initial treatment with adenosine nucleotide was followed by additional treatment five to six minutes after initial dose. Treatment and data analysis were as described supra.

T1 sequence (Q9BY21 whole entry): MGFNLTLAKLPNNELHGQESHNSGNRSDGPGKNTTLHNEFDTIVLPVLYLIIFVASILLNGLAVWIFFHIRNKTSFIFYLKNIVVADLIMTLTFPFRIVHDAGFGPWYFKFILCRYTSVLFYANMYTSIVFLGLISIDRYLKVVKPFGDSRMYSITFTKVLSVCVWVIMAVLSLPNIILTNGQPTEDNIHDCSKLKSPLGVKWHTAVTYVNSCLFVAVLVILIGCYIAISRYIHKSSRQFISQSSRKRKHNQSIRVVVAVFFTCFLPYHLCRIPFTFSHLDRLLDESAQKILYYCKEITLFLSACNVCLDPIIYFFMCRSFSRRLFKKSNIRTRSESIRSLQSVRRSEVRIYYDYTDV

Row | Compound | calcium mobilization response (2871 receptor [1]) | EC50 (2871 receptor [1]) | desensitization of calcium mobilization response to subsequent adenosine nucleotide treatment (2871 receptor [2]) | agonist activity after initial AMP treatment (2871 receptor [2]; second treatment five to six minutes after initial AMP dose)
1 | di-adenosine pentaphosphate [AP5A] | dose-dependent | 1200 to 1800 nM |  | 
2 | Nc1ncnc2c1ncn2[C@@H]1O[C@H](COP(=O)(O)OP(=O)(O)O[C@H]2O[C@H](CO)[C@@H](O)[C@H](O)[C@@H]2O)[C@@H](O)[C@H]1O [ADP-mannose] | dose-dependent |  |  | 
3 | di-adenosine hexaphosphate [AP6A] | dose-dependent | 200 to 400 nM | effectively desensitized 2871 receptor to subsequent treatment with either AP6A or AMP | retained agonist activity
4 | Nc1ncnc2c1ncn2[C@@H]1O[C@H](COP(=O)(O)O)[C@@H](O)[C@H]1O [AMP, adenosine monophosphate] | dose-dependent | 500 to 800 nM | conferred desensitization to subsequent AMP treatment | 
5 | di-adenosine tetraphosphate [AP4A] | dose-dependent | 1800 to 2000 nM |  | 
6 | Nc1ncnc2c1ncn2C1OC(COP(=O)(O)OP(=O)(O)OCC2OC(O)C(O)C2O)C(O)C1O (stereo not shown) [ADP-ribose, adenosine di-phosphate-ribose] | dose-dependent | 400 to 800 nM |  | 
7 | Nc1ncnc2c1ncn2[C@@H]1O[C@H](COP(=O)(O)OP(=O)(O)OC[C@H]2O[C@@H](n3cnc4c(N)ncnc43)[C@H](O)[C@@H]2O)[C@@H](O)[C@H]1O [AP2A] | dose-dependent |  |  | 
8 | Nc1ncnc2c1ncn2[C@@H]1O[C@H](COP(=O)(O)OP(=O)(O)OP(=O)(O)OC[C@H]2O[C@@H](n3cnc4c(N)ncnc43)[C@H](O)[C@@H]2O)[C@@H](O)[C@H]1O [AP3A] | dose-dependent |  |  | 
